Measurements from US6946456B2, “Methods for treating cell proliferative disorders and viral infections” (Sloan-Kettering Institute for Cancer Research, priority 2000, dated 2005).
“Also recorded” adds a separate entry of the source.

Legend:
[1] = tested on: Rb-wild type cells (MCF7 and Colo 205); assay: Cell cycle analysis by flow cytometry of ethidium bromide-stained nuclei, Rb-wild type tumor cell lines; assay type: cell-based, human; conditions: for cell cycle effect in tumor cell lines: 12 tumor cell lines examined, FIG. 1A
Procedure: (§1) The human breast cancer cell lines MB-MDA 468, MCF7 and BT-549 and the colon carcinoma cell line, Colo 205, were obtained from ATCC. Breast cell lines were maintained in DME-F12 media and Colo 205 cells in RPMI; both media were supplemented with 5% fetal calf serum (BRL), 2 mM glutamine and 50 u/ml each of penicillin and streptomycin. All cells were incubated at 37° C. in 5% C02. Cells were treated for 24 hours with 250 ng/ml herbimycin A (Gibco) dissolved in DMSO or 435 nM of radicicol (Sigma). After treatment the […] and analyzed by flow cytometry. Nuclei were isolated for flow cytometry assays stained with ethidium bromide and analyzed using a Becton Dickinson fluorescence-activated cell sorter. Statistical data was obtained using Multicycle program software.

[2] = tested on: tumor cell lines with mutated Rb (MB-MDA 468, BT-549, DU145 and DU4475); assay: Cell cycle analysis by flow cytometry of ethidium bromide-stained nuclei, tumor cell lines with mutated Rb; assay type: cell-based, human
Procedure: as §1

MB-MDA 468 cells [3] = assay: Immunofluorescent analysis (bisbenzimide, anti-α-tubulin, ACA/CREST); assay type: cell-based, human
Procedure: For immunofluorescent analysis, harvested cells were washed with PBS, fixed with methanol for 20 min at −20° C., washed again and blocked for 30 min with 2% BSA in PBS. Cells were then stained with anti-α-tubulin (Sigma) and anti-centromere protein antibodies (ACA/CREST) (gift of Dr. J. D. Rattner) in 2% BSA PBS for 1 hour. Following 3 washes with 0.5% BSA in PBS, cells were incubated with anti-human FITC conjugated, antimouse rhodamine conjugated antibodies (Molecular Probes) and 2 μg/ml bisbenzimide in 2% BSA in PBS for 45 min. Cells were then washed 4× with 0.5% BSA in PBS, resuspended in PBS and images captured by confocal microscopy or with a CCD camera. Images were then processed using Slidebook 3.0 and Adobe Photoshop program software.

[4] = tested on: cyclin A-associated kinase activity; assay: Immunoprecipitation and in vitro kinase assay (histone H1), cyclin A; assay type: cell-based, human; conditions: MB-MDA 468, arrested cells compared to control cells
Procedure: (§2) Levels of mitotic cyclin expression and associated kinase activities in herbimycin arrested MB-MD468 cells were assessed using immunoblot analysis and in vitro kinase assays as described below. Cells cultured with herbimycin were enriched for mitotically arrested cells by using only the loosely adherent population in which the mitotic index was greater than 90%.
(§3) For immunoprecipitation, 100 μg of total protein was incubated with anticyclin A or anti-cyclin B1 (Santa Cruz) antibodies for 2 hours at 4° C. and then for 1 hour following the addition of protein A-Sephaliose. The immune complexes were washed 4× with lysis buffer and boiled in SDS-PAGE sample buffer for 5 min. Following SDS-PAGE, proteins were transferred onto Immobilon and analyzed by western blotting.
(§4) For in vitro kinase reactions, immune complexes were washed 4× with lysis buffer, 2× with kinase buffer (20 mM Tris pH 7.4, 7.5 mM MgCl2, 1 mM DTT) and incubated in 40 μl of kinase buffer containing 2 μg histone H1, 10 μCi [γ-^32P] ATP and 300 μM ATP for 10 min at 37° C. The reaction was stopped by the addition of SDS-PAGE sample buffer and boiled for 5 min. Proteins were resolved on SDS-PAGE, transferred onto Immobilon and exposed to autoradiography film or phosphoimager screen. Kinase activity was quantitated by FUJIX phosphoimager and MacBAS program software.

cyclin A expression = assay: Immunoblot analysis of cyclin A expression; assay type: cell-based, human; conditions: MB-MDA 468, arrested cells compared to control cells
Procedure: as §2
(§5) Immunoblot analysis of lysates from cells treated with DMSO, nocodazole or herbimycin were analyzed by Western blot analysis using anti-cyclin A or anti-B1 antibodies. Treated cells were harvested, washed with PBS and lysed in NP40 lysis buffer (50 mM Tris pH7.4, 1% NP40,150 mM NaCl, 40 mM NaF. 1 mM Na3VO4, 1 mM phenylmethylsulfonlylfluoride, and 10 μg/ml. each of leupeptin, aprotinin and soybean trypsin inhibitor) for 30 min on ice. Lysates were centrifuged at 15,000×g for 10 min and protein concentration determined by bicinchoninic acid protein assay (Pierce). Equal amounts of total protein were resolved by SDS-PAGE and transferred onto Immobilon PVDF membranes (Millipore) by electroblotting. Blots were blocked overnight in 5% nonfat milk in TBS-T (0.1% Tween-20 TBS, 10 mM Tris pH 7.4, 150 mM NaCl) at 4° C. and subsequently probed with either anti-cyclin A or cyclin B1 antibodies (Santa Cruz Biotechnology). Following incubation with HRP-conjugated secondary antibodies, proteins were detected by chemiluminescence (Amersham).

MB-MDA 468 cells [5] = assay: Mitotic index by bisbenzimide staining; assay type: cell-based, human
Procedure: For mitotic indices, cells were typsinized, washed with PBS and fixed with 3% paraformaidehyde in PBS for 20 min. Cells were then stained with 3 μg/ml bisbenzimide (Hoechst 33258; Sigma) for 15 min and examined under fluorescence microscopy. Mitosis was scored by the presence of condensed chromosomes.

[6] = tested on: cyclin B1-associated kinase activity; assay: Immunoprecipitation and in vitro kinase assay (histone H1), cyclin B1; assay type: cell-based, human; conditions: MB-MDA 468, loosely adherent mitotically arrested cells
Procedure: as §2, §3, §4

[7] = tested on: cyclin B1 protein expression; assay: Immunoblot analysis of cyclin B1 expression; assay type: cell-based, human; conditions: MB-MDA 468, compared to control
Procedure: as §2, §5

[8] = tested on: Rb-wild type Colo 205 cells; assay: Synchrony experiment: release from aphidicolin block, Colo 205; assay type: cell-based, human; conditions: released into drug
Procedure: (§6) Nuclei were isolated for flow cytometry assays stained with ethidium bromide and analyzed using a Becton Dickinson fluorescence-activated cell sorter. Statistical data was obtained using Multicycle program software.
(§7) For synchrony experiments, cells were treated with 1 μg/ml aphidicolin (Sigma) for 18 hours, washed and replated in media containing DMSO or HA.

[9] = tested on: Rb-negative MB-MDA 468 cells; assay: Synchrony experiment: release from aphidicolin block, MB-MDA 468; assay type: cell-based, human; conditions: released into drug
Procedure: as §6, §7
(§8) To further confirm that the gene product of the Rb gene permits progression through mitosis in the presence of an HSP90 inhibitor, MB-MDA 468 cells were transfected with the plasmid pUHD1 0-3HGR containing full-length 4.7 kb human Rb cDNA. Rb transfectants were grown in DME-F12 media supplemented with 5% fetal calf serum (BRL), 2 mM glutamine and 50 μg/ml each of penicillin and streptomycin and 100 μg/ml hygromycin B (Boehringer Mannheim). To confirm the presence of the Rb gene product Western blot analysis was carried out using anti-Rb antibodies (Pharmingen) as described herein. Vector control, MB-MDA 468, and Rb transfected MB-MDA 468 cells were arrested with aphidicolin as described above. After release from aphidicolin arrest, transfected and non-transfected MM-MDA 468 cells were cultured in the presence of an ansamycin inhibitor as described in Example 1. Cell progression was monitored by flow cytometric analysis of ethidium bromide-stained nuclei as described above.

[10] = tested on: primary human foreskin keratinocytes (HFK); assay: Cell cycle analysis in primary human foreskin keratinocytes; assay type: cell-based; conditions: 24 hours
Procedure: (§9) Primary human foreskin keratinocytes transfected with HPV-1 6 E6 and E7 were provided by Drs. H. Stöppler and R. Schlegel (Georgetown Univ.) and grown as previously described. Primary human foreskin keratinocytes or HPV 16 E6/E7 transfected human foreskin keratinoytes were treated with HA or DMSO for 24 hours and ethidium bromide stained-nuclei analyzed by flow cytometry as described above.

[11] = tested on: HPV 16 E6/E7 transfected human foreskin keratinocytes; assay: Cell cycle analysis in HPV 16 E6/E7 transfected human foreskin keratinocytes; assay type: cell-based; conditions: 24 hours
Procedure: as §9

[12] = tested on: Rb transfected MB-MDA 468 cells (468-7 and 468-19); assay: Cell cycle analysis in Rb transfected MB-MDA 468 cells; assay type: cell-based, human
Procedure: as §8

With `C=CCNC1=C2C[C@@H](C)C[C@H](OC)[C@H](O)[C@@H](C)/C=C(\C)[C@H](OC(N)=O)[C@@H](OC)/C=C\C=C(/C)C(=O)NC(=CC1=O)C2=O` [17-AAG, 17-allylamino-(17)-demethoxygeldanamycin] the “cell cycle effect in tumor cell lines” value [1] was “growth arrest in G1” and the “cell cycle profiles and mitotic phenotype compared with HA” value ([2]; Rb-dependent) was “same Rb-dependent cell cycle profiles and mitotic phenotype as observed with HA”.
For `C[C@@H]1C[C@H]2O[C@@H]2/C=C\C=C\C(=O)Cc2c(Cl)c(O)cc(O)c2C(=O)O1` [Radicicol], the “cell cycle effect in Rb-positive cell lines” value ([1]; Colo205 and MCF7, 435 nM, 24 hours) was “induced G1 arrest”, the “cell cycle effect in Rb-negative MDA-468 cells” value ([2]; MDA-468, 435 nM, 24 hours) was “accumulation of cells with 4n DNA content” and the “chromosomal distribution in arrested MDA 468 cells” value (MB-MDA 468 cells [3]; MDA 468 cells, radicicol-arrested) was “chromosomes localized to the poles as well as strewn along the spindle”.
`COC(=O)Nc1nc2ccc(C(=O)c3cccs3)cc2[nH]1` [nocodazole] was tested, and the “cyclin A-associated kinase activity” value [4] was “slightly lower” and the “cyclin A expression” value (cyclin A expression) was “slightly lower”.
For `CO[C@H]1[C@@H](OC)C[C@H](C)[C@@H](OC)C2=CC(=O)C=C(NC(=O)/C(C)=C/C=C\[C@H](OC)[C@@H](OC(N)=O)/C(C)=C/[C@@H]1C)C2=O` [HA, herbimycin A], the “cell cycle effect in tumor cell lines” value [1] was “growth arrest in G1”, the “cell cycle effect in tumor cell lines with mutated Rb” value ([2]; MB-MDA 468, BT-549, DU145 and DU4475, 250 ng/ml, 24 hours, FIG. 1B) was “accumulation of cells with 4n DNA content” and the “cell cycle effect in control transfectants” value ([2]; control transfectants (MB-MDA 468 cells)) was “accumulated with 4n DNA content”. The “mitotic index of the loosely adherent population” value (MB-MDA 468 cells [5]; MB-MDA 468, enriched for mitotically arrested cells) was “greater than 90%”, the “mitotic index (cells in mitosis)” value (MB-MDA 468 cells [5]; MB-MDA 468 cells, treated population, control 5-10%) was 60-70% and the “chromosomes localized to the poles scored as double dots for ACA staining” value (MB-MDA 468 cells [3]; 77 chromosomes localized to the poles) was 87%. For the same compound, the “spindle formation (α-tubulin staining)” value (MB-MDA 468 cells [3]; arrested Rb-negative cells) was “arrested cells contained bipolar spindles”, the “chromosomal distribution (bisbenzimide and ACA/CREST staining)” value (MB-MDA 468 cells [3]; arrested Rb-negative cells, in most cells) was “chromosomes localized both to the poles and within the spindle” and the “cyclin B1-associated kinase activity, elevation compared to control” value [6] was 5 fold. The “cyclin A-associated kinase activity” value [4] was “slightly lower”, the “cyclin B1 protein expression” value [7] was “increased” and the “cyclin A expression” value (cyclin A expression) was “slightly lower”. The “cell cycle progression after release from aphidicolin block” value [8] was “complete mitosis; also recorded: progressed through G2 and mitosis and were arrested in the next G1”, the “time to arrest in the next mitosis after release from aphidicolin” value [9] was ≤ 12 h and the “cell cycle effect in primary HFK cells” value [10] was “accumulate in G1”. For the same compound, the “cell cycle effect in E6/E7 transfectants” value [11] was “arrested with 4n DNA content; also recorded: mitotic arrest and not G1 arrest”, the “cell cycle effect in Rb-transfectants” value ([12]; clones 468-7 and 468-19, asynchronous) was “increase in G1 and had no effect on G2/M; also recorded: no effect on G2/M in the Rb-transfectants and instead caused an increase in G1” and the “cell cycle progression of Rb transfectants after release from aphidicolin block” value ([12]; clones 468-7 and 468-19, released into drug) was “cycled through mitosis and entered G1; also recorded: abrogates HA-induced mitotic arrest”.
